Measurements published in patent publication US20230339981A1, “KRAS G12D MODULATING COMPOUNDS” (priority 2022, published 2023).

Key:
[1] = tested on: GP2D (KRAS G12D) cells; assay: 2D cell viability assay (CellTiter-Glo); format: cell-based; details: 4 days
Experimental: Example B. 2D Cell Viability Assay
Compounds were tested in a 384-well format for their ability to inhibit the viability of GP2D (KRAS G12D) cells in 2D assays. Compounds were serially diluted (1:3) in DMSO. The LabCyte ECHO Acoustic dispenser system was used to pre-spot assay plates with 200 nL of test molecule per well. 1000 cells/well (40 μL volume per well) in RPMI medium with 10% FBS, and Penicillin-Streptomycin-Glutamine were plated in pre-spotted 384-well plates (Greiner, Catalog #781076) on the BioTEK EL406 liquid dispenser with a 5 μL dispensing cassette (BioTek 7170011). The plates were incubated at 37° C., 5% CO2 for 4 days before addition of CellTiter-Glo (CTG) reagent and measurement of luminescence signal. EC50 values were defined as the compound concentration that causes a 50% decrease in luminescence signal and were calculated using a sigmoidal dose-response model to generate curve fits.

[2] = molecular target: GDP-loaded KRAS G12D (Homo sapiens (Human), UniProt P01116, G12D); assay: KRAS G12D (GDP) biochemical assay (TR-FRET probe displacement); format: binding; details: 2 hours
Experimental: Example A. KRAS G12D (GDP) Biochemical Assay
Compounds were tested for binding to GDP-loaded KRAS G12D in a 384-well assay format using a TR-FRET probe displacement assay in buffer consisting of 50 mM Hepes (pH 7.4), 150 mM NaCl, 5 mM MgCl2 and 0.005% Tween-20. […] Compounds were serially diluted (1:3) in DMSO. The LabCyte ECHO Acoustic dispenser system was used to pre-spot the assay plates (384-well Non-Binding Surface plates, Corning, Catalog #3824) with 50 nL of compound. The compounds were pre-incubated with 5 μL of 2× final enzyme concentration for 30 minutes before adding 5 μL of 2× final concentration of Eu-streptavidin and TR-FRET probe (10 μL final reaction volume). The plates were incubated at room temperature for 2 hours before measuring TR-FRET ratio on the Envision plate reader. IC50 values were defined as the compound concentration that causes a 50% decrease in TR-FRET ratio and were calculated using a sigmoidal dose-response model to generate curve fits.

Row | Molecule | EC50 ([1]; GP2d, 96 h) | IC50 [2] | EC50 [1]
1 | C#Cc1c(F)ccc2cccc(-c3nc4c5c(nc(OCC67CCCN6C[C@H](OC(F)(F)F)C7)nc5c3F)N3C[C@H]5CC[C@H](N5)[C@H]3CC4)c12 (stereo partly drawn) [Example 137, (5aR,6S,9R)-2-(8-ethynyl-7-fluoronaphthalen-1-yl)-1-fluoro-12-((cis-2-(trifluoromethoxy)tetrahydro-1H-pyrrolizin-7a(5H)-yl)methoxy)-4,5,5a,6,7,8,9,1O-octahydro-3,10a,11,13,14-pentaaza-6,9-methanonaphtho[1,8-ab]heptalene] | 100 nM | 24.5 nM | 
2 | C#Cc1c(F)c(F)cc2cccc(-c3nc4c5c(nc(OC[C@@]67CCCN6C[C@H](F)C7)nc5c3F)N3C[C@H]5CC[C@H](N5)[C@H]3CO4)c12 [Example 62, (5aS,6S,9R)-2-(8-ethynyl-6,7-difluoronaphthalen-1-yl)-1-fluoro-12-(((2R,7aS)-2-fluorotetrahydro-1H-pyrrolizin-7a(5H)-yl)methoxy)-5a,6,7,8,9,10-hexahydro-5H-4-oxa-3,10a,11,13,14-pentaaza-6,9-methanonaphtho[1,8-ab]heptalene] | 79 nM | 7 nM | 
3 | C#Cc1c(F)ccc2cccc(-c3nc4c5c(nc(OC[C@]67CCCN6C[C@H](OC(C(F)(F)F)(C(F)(F)F)C(F)(F)F)C7)nc5c3F)N3C[C@H]5CC[C@H](N5)[C@H]3CC4)c12 [Example 145, (5aR,6S,9R)-2-(8-ethynyl-7-fluoronaphthalen-1-yl)-1-fluoro-12-((cis-2-((1,1,1,3,3,3-hexafluoro-2-(trifluoromethyl)propan-2-yl)oxy)tetrahydro-1H-pyrrolizin-7a(5H)-yl)methoxy)-4,5,5a,6,7,8,9,10-octahydro-3,10a,11,13,14-pentaaza-6,9-methanonaphtho[1,8-ab]heptalene] | 100 nM | 100 nM | 
4 | C#Cc1c(F)ccc2cc(O)cc(-c3nc4c5c(nc(OC[C@]67CCCN6C[C@H](OC(C(F)(F)F)(C(F)(F)F)C(F)(F)F)C7)nc5c3F)N3C[C@H]5CC[C@H](N5)[C@H]3CC4)c12 [Example 144, 5-ethynyl-6-fluoro-4-((5aR,6S,9R)-1-fluoro-12-((cis-2-((1,1,1,3,3,3-hexafluoro-2-(trifluoromethyl)propan-2-yl)oxy)tetrahydro-1H-pyrrolizin-7a(5H)-yl)methoxy)-4,5,5a,6,7,8,9,10-octahydro-3,10a,11,13,14-pentaaza-6,9-methanonaphtho[1,8-ab]heptalen-2-yl)naphthalen-2-ol] | 100 nM | 83.1 nM | 
5 | C#Cc1c(F)ccc2cc(O)cc(-c3nc4c5c(nc(OCC6(CN7CC[C@@H](C(F)(F)F)C7)CC6)nc5c3F)N3C[C@H]5CC[C@H](N5)[C@H]3CC4)c12 [Example 70, 5-ethynyl-6-fluoro-4-((5aR,6S,9R)-1-fluoro-12-((1-(((R)-3-(trifluoromethyl)pyrrolidin-1-yl)methyl)cyclopropyl)methoxy)-4,5,5a,6,7,8,9,10-octahydro-3,10a,11,13,14-pentaaza-6,9-methanonaphtho[1,8-ab]heptalen-2-yl)naphthalen-2-ol] | 1 nM | 0.1 nM | 
6 | Oc1cc(-c2nc3c4c(nc(OC[C@@]56CCCN5C[C@H](F)C6)nc4c2F)N2C[C@H]4CC[C@H](N4)[C@H]2CO3)c2c(F)c(F)c(F)cc2c1 [Example 11, 5,6,7-trifluoro-4-((5aS,6S,9R)-1-fluoro-12-(((2R,7aS)-2-fluorotetrahydro-1H-pyrrolizin-7a(5H)-yl)methoxy)-5a,6,7,8,9,10-hexahydro-5H-4-oxa-3,10a,11,13,14-pentaaza-6,9-methanonaphtho[1,8-ab]heptalen-2-yl)naphthalen-2-ol] | 56 nM | 1 nM | 
7 | C#Cc1c(F)ccc2cc(O)cc(-c3cc4c5c(nc(OC[C@@]67CCCN6C[C@H](F)C7)nc5c3F)N3C[C@H]5CC[C@H](N5)[C@H]3CO4)c12 [Example 57, 5-ethynyl-6-fluoro-4-((5aS,6S,9R)-1-fluoro-13-(((2R,7aS)-2-fluorotetrahydro-1H-pyrrolizin-7a(5H)-yl)methoxy)-5a,6,7,8,9,1O-hexahydro-5H-6,9-epiminoazepino[2′,1′:3,4][1,4]oxazepino[5,6,7-de]quinazolin-2-yl)naphthalen-2-ol] | 28 nM | 0.6 nM | 
8 | C#Cc1c(F)ccc2cccc(-c3nc4c5c(nc(OCC6(CN7CCC(C(F)(F)F)CC7)CC6)nc5c3F)N3C[C@H]5CC[C@H](N5)[C@@H]3[C@@H](C)C4)c12 [Example 146, (5S,5aS,6S,9R)-2-(8-ethynyl-7-fluoronaphthalen-1-yl)-1-fluoro-5-methyl-12-((1-((4-(trifluoromethyl)piperidin-1-yl)methyl)cyclopropyl)methoxy)-4,5,5a,6,7,8,9,10-octahydro-3,10a,11,13,14-pentaaza-6,9-methanonaphtho[1,8-ab]heptalene] | 100 nM | 15.6 nM | 
9 | C#Cc1c(F)ccc2cccc(-c3nc4c5c(nc(OCC6(CN7CCC(OC(F)(F)F)CC7)CC6)nc5c3F)N3C[C@H]5CC[C@H](N5)[C@H]3CC4)c12 [Example 107, (5aR,6S,9R)-2-(8-ethynyl-7-fluoronaphthalen-1-yl)-1-fluoro-12-((1-((4-(trifluoromethoxy)piperidin-1-yl)methyl)cyclopropyl)methoxy)-4,5,5a,6,7,8,9,10-octahydro-3,10a,11,13,14-pentaaza-6,9-methanonaphtho[1,8-ab]heptalene] | 460 nM | 7.2 nM | 
10 | C#Cc1c(F)ccc2cc(O)cc(-c3nc4c5c(nc(OC[C@@]67CCCN6C[C@H](F)C7)nc5c3F)N3C[C@H]5CC[C@H](N5)[C@@H]3[C@H](CC)C4)c12 [Example 90, 4-((5R,5aS,6S,9R)-5-ethyl-1-fluoro-12-(((2R,7aS)-2-fluorotetrahydro-1H-pyrrolizin-7a(5H)-yl)methoxy)-4,5,5a,6,7,8,9,10-octahydro-3,10a,11,13,14-pentaaza-6,9-methanonaphtho[1,8-ab]heptalen-2-yl)-5-ethynyl-6-fluoronaphthalen-2-ol] | 1000 nM | 100 nM | 
11 | Oc1cc(-c2nc3c4c(nc(OC[C@@]56CCCN5C[C@H](F)C6)nc4c2F)N2C[C@H]4CC[C@H](N4)[C@H]2CO3)c2cc(F)ccc2c1 [Example 8, 6-fluoro-4-((5aS,6S,9R)-1-fluoro-12-(((2R,7aS)-2-fluorotetrahydro-1H-pyrrolizin-7a(5H)-yl)methoxy)-5a,6,7,8,9,10-hexahydro-5H-4-oxa-3,10a,11,13,14-pentaaza-6,9-methanonaphtho[1,8-ab]heptalen-2-yl)naphthalen-2-ol] | 54 nM | 2 nM | 
12 | (6aR,7S,10R)-2-(8-ethynyl-7-fluoronaphthalen-1-yl)-1-fluoro-13-(((3S,7aS)-3-(((2-(trifluoromethyl)pyrimidin-4-yl)oxy)methyl)tetrahydro-1H-pyrrolizin-7a(5H)-yl)methoxy)-5,6,6a,7,8,9,10,11-octahydro-4H-3,11a,12,14,15-pentaaza-7,10-methanocyclohepta[4,5]cycloocta[1,2,3-de]naphthalene [Example 153] |  | 0.3 nM | 4.3 nM
13 | Oc1cc(-c2nc3c4c(nc(OC[C@@]56CCCN5C[C@H](F)C6)nc4c2F)N2C[C@H]4CC[C@H](N4)[C@H]2CO3)c2c(F)cccc2c1 [Example 5, 5-fluoro-4-((5aS,6S,9R)-1-fluoro-12-(((2R,7aS)-2-fluorotetrahydro-1H-pyrrolizin-7a(5H)-yl)methoxy)-5a,6,7,8,9,10-hexahydro-5H-4-oxa-3,10a,11,13,14-pentaaza-6,9-methanonaphtho[1,8-ab]heptalen-2-yl)naphthalen-2-ol] | 250 nM | 3 nM | 
14 | Oc1cc(-c2nc3c4c(nc(OC[C@@]56CCCN5C[C@H](F)C6)nc4c2F)N2C[C@H]4CC[C@H](N4)[C@H]2CC3)c2c(CC(F)(F)F)c(F)ccc2c1 [Example 50, 6-fluoro-4-((5aR,6S,9R)-1-fluoro-12-(((2R,7aS)-2-fluorotetrahydro-1H-pyrrolizin-7a(5H)-yl)methoxy)-4,5,5a,6,7,8,9,10-octahydro-3,10a,11,13,14-pentaaza-6,9-methanonaphtho[1,8-ab]heptalen-2-yl)-5-(2,2,2-trifluoroethyl)naphthalen-2-ol] | 24 nM | 3 nM | 
15 | C#Cc1c(F)ccc2cc(N)cc(-c3nc4c5c(nc(OC[C@@]67CCCN6C[C@H](F)C7)nc5c3F)N3C[C@H]5CC[C@H](N5)[C@@H]3[C@@H](C)C4)c12 [Example 196, 5-ethynyl-6-fluoro-4-((5S,5aS,6S,9R)-1-fluoro-12-(((2R,7aS)-2-fluorotetrahydro-1H-pyrrolizin-7a(5H)-yl)methoxy)-5-methyl-4,5,5a,6,7,8,9,10-octahydro-3,10a,11,13,14-pentaaza-6,9-methanonaphtho[1,8-ab]heptalen-2-yl)naphthalen-2-amine] | 1.8 nM | 0.1 nM | 
